70 molecules from US20260053861A1, “CELL COMPOSITIONS AND METHODS OF USING THE SAME” (THE REGENTS OF THE UNIVERSITY OF CALIFORNIA, priority 2022, published 2026) can be followed below.

Structures can show the parent of a compound that is named as a salt.

The first assay deals with hPSC-SCs.
Settings: not given
`CC[C@H](CC[C@@H](C)[C@H]1CC[C@H]2[C@@H]3CC=C4C[C@@H](O)CC[C@]4(C)[C@H]3CC[C@]12C)C(C)C` [Beta-sistosterol]: the z.score.t is reported as 0.1543.

`CN1CCc2cc3c(cc2[C@H]1[C@@H]1OC(=O)c2c1ccc1c2OCO1)OCO3` [Bicuculline (+)]: the z.score.t turned out to be 0.5437.

In turn, `COc1cc2c(cc1O)C[C@H]1c3c(cc(O)c(OC)c3-2)CCN1C` [Boldine] came in with a z.score.t of 0.767.

Molecule `CCCCOC(=O)c1ccc(O)cc1` [Butylparaben] returned a z.score.t of −0.2359.

`CN1CC[C@]23c4ccccc4N[C@H]1[C@]21CCN(C)[C@H]3Nc2ccccc21` [Calycanthine] returned a z.score.t of 0.4849.

`NC(N)=NOCC[C@H](N)C(=O)O.O.O=S(=O)(O)O` [Canavanine sulfate monohydrate (L, +)] came in with a z.score.t of 1.095.

`C[C@@]12C(=O)OC(=O)[C@]1(C)[C@H]1CC[C@@H]2O1` [Cantharidin] had a z.score.t of −2.175.

Molecule `CCCC(C)(COC(N)=O)COC(=O)NC(C)C` (stereo not shown) [Carisoprodol] came in with a z.score.t of 0.425.

On to `CCC1=C[C@@H]2CN3CCc4c([nH]c5ccccc45)[C@@](C(=O)OC)(C2)[C@@H]13` [Catharanthine], for which the z.score.t is 0.2625.

Still in this assay, the particulars now being: HTS viability of hPSC-SCs in the presence of 30 mM glucose; Prestwick library; Table S4.
As to `CCOC(=O)c1ccc(N)cc1` [Benzocaine], the z.score.t is recorded as −0.8317.

As for `CCCCNc1ccc(C(=O)OCCOCCOCCOCCOCCOCCOCCOCCOCCOC)cc1` [Benzonatate], the z.score.t is given as 0.6386.

As to `NS(=O)(=O)c1cc2c(cc1Cl)N=C(CSCc1ccccc1)NS2(=O)=O` [Benzthiazide], the z.score.t was found to be 0.3022.

Consider `CN(C)CCCOc1nn(Cc2ccccc2)c2ccccc12` [Benzydamine hydrochloride], for which the z.score.t is −1.272.

On to `CC1(C)S[C@@H]2[C@H](NC(=O)Cc3ccccc3)C(=O)N2[C@H]1C(=O)O` [Benzylpenicillin sodium], for which the z.score.t is listed as −1.3.

With `C[N+](C)(CCOc1ccccc1)Cc1ccccc1.O=C([O-])c1cc2ccccc2cc1O` [Bephenium hydroxynaphthoate], the z.score.t turned out to be 0.5158.

Consider `CC(C)COCC(CN(Cc1ccccc1)c1ccccc1)N1CCCC1` (stereo not shown) [Bepridil hydrochloride], for which the z.score.t is −0.5726.

With `COc1ccc2cc3[n+](cc2c1OC)CCc1cc2c(cc1-3)OCO2` [Berberine chloride], the z.score.t is 1.018.

Consider `COc1c(O)cc2c(c1O)[C@@H]1O[C@H](CO)[C@@H](O)[C@H](O)[C@H]1OC2=O` [Bergenin monohydrate], for which the z.score.t is recorded as 1.238.

With `CNCCc1ccccn1.CS(=O)(=O)O.CS(=O)(=O)O` [Betahistine mesylate], the z.score.t is −0.6301.

As for `C[C@H]1C[C@H]2[C@@H]3CCC4=CC(=O)C=C[C@]4(C)[C@@]3(F)[C@@H](O)C[C@]2(C)[C@@]1(O)C(=O)CO` [Betamethasone], the z.score.t came out at 0.8711.

`CC(C)NCC(O)COc1ccc(CCOCC2CC2)cc1` (stereo not shown) [Betaxolol hydrochloride]: the z.score.t is −0.5337.

`NCCc1cc[nH]n1` [Betazole hydrochloride]: the z.score.t is recorded as 1.681.

`CC(C[N+](C)(C)C)OC(N)=O` (stereo not shown) [Bethanechol chloride]: the z.score.t was determined as 0.3236.

For `C[N+]1(C)C[C@H](O)C[C@H]1C(=O)[O-]` [Betonicine], the z.score.t is on record as 1.194.

Consider `C=C(C)[C@@H]1CC[C@]2(CO)CC[C@]3(C)[C@H](CC[C@@H]4[C@@]5(C)CC[C@H](O)C(C)(C)[C@@H]5CC[C@]43C)[C@@H]12` [Betulin], for which the z.score.t is given as −1.025.

Turning to `C=C(C)[C@@H]1CC[C@]2(C(=O)O)CC[C@]3(C)[C@H](CC[C@@H]4[C@@]5(C)CC[C@H](O)C(C)(C)[C@@H]5CC[C@]43C)[C@@H]12` [Betulinic acid], the z.score.t is reported as −1.832.

Consider `CC(C)(Oc1ccc(CCNC(=O)c2ccc(Cl)cc2)cc1)C(=O)O` [Bezafibrate], for which the z.score.t is given as 1.266.

With `O=C(O)CCCC[C@@H]1SC[C@@H]2NC(=O)N[C@@H]21` [Biotin], the z.score.t was 0.2189.

Consider `OC(CCN1CCCCC1)(c1ccccc1)C1CC2C=CC1C2` (stereo not shown) [Biperiden hydrochloride], for which the z.score.t came to 0.04918.

As for `CC(=O)Oc1ccc(C(c2ccc(OC(C)=O)cc2)c2ccccn2)cc1` [Bisacodyl], the z.score.t was found to be 0.4849.

For the molecule `CC(C)NCC(O)COc1ccc(COCCOC(C)C)cc1` (stereo not shown) [Bisoprolol fumarate], the z.score.t is reported as −0.1003.

In the case of `CC[N+](C)(C)Cc1ccccc1Br` [Bretylium tosylate], the z.score.t is −0.3895.

On to `CCN[C@H]1CN(CCCOC)S(=O)(=O)c2sc(S(N)(=O)=O)cc21` [Brinzolamide], for which the z.score.t is reported as 0.7491.

On to `CCN(CC)CCNC(=O)c1cc(Br)c(N)cc1OC` [Bromopride], for which the z.score.t was −0.3895.

As for `O=C(CCCN1CCC(O)(c2ccc(Br)cc2)CC1)c1ccc(F)cc1` [Bromperidol], the z.score.t was found to be 1.239.

Take `CN(C)CCC(c1ccc(Br)cc1)c1ccccn1` (stereo not shown) [Brompheniramine maleate]: the z.score.t was −0.8478.

As for `CCCC(=O)Nc1ncnc2c1ncn2[C@@H]1O[C@@H]2COP(=O)(O)O[C@H]2[C@H]1OC(=O)CCC` [Bucladesine sodium salt], the z.score.t stood at 0.7727.

Consider `CCCC1O[C@@H]2C[C@H]3[C@@H]4CCC5=CC(=O)C=C[C@]5(C)[C@H]4[C@@H](O)C[C@]3(C)[C@]2(C(=O)CO)O1` (stereo partly shown) [Budesonide], for which the z.score.t is recorded as 1.74.

Turning to `CCCCOc1ccc(CC(=O)NO)cc1` [Bufexamac], the z.score.t is −0.6623.

In the case of `COc1cc(OC)c(C(=O)CCCN2CCCC2)c(OC)c1` [Buflomedil hydrochloride], the z.score.t was 0.3641.

Consider `CCCCNc1cc(C(=O)O)cc(S(N)(=O)=O)c1Oc1ccccc1` [Bumetanide], for which the z.score.t came to 1.181.

On to `CCCCN1CCCCC1C(=O)Nc1c(C)cccc1C` (stereo not shown) [Bupivacaine hydrochloride], for which the z.score.t is listed as −0.3156.

For the molecule `CC(NC(C)(C)C)C(=O)c1cccc(Cl)c1` (stereo not shown) [Bupropion hydrochloride], the z.score.t was 2.803.

With `CCCCN(CCCC)CCCOC(=O)c1ccc(N)cc1` [Butacaine], the z.score.t is given as −0.3023.

For `CCCCOC(=O)c1ccc(N)cc1` [Butamben], the z.score.t amounted to 0.8465.

Consider `Clc1ccc(CCC(Cn2ccnc2)Sc2c(Cl)cccc2Cl)cc1` (stereo not shown) [Butoconazole nitrate], for which the z.score.t was −1.151.

`O=C(O)/C=C/c1ccc(O)c(O)c1` [Caffeic acid]: the z.score.t is 0.9865.

With `C=C1CC[C@H](O)C/C1=C/C=C1\CCC[C@]2(C)[C@@H]([C@H](C)/C=C/[C@H](C)C(C)C)CC[C@@H]12` [Calciferol], the z.score.t is 0.4451.

For `CC[C@@]1(O)C(=O)OCc2c1cc1n(c2=O)Cc2cc3ccccc3nc2-1` [Camptothecine (S, +)], the z.score.t is on record as −1.163.

Consider `C[C@]12CCC(=O)C=C1C=C[C@@H]1[C@@H]2CC[C@@]2(C)[C@H]1CC[C@@]2(O)CCC(=O)O` [Canrenoic acid potassium salt], for which the z.score.t was 0.05523.

Take `COc1cc(CNC(=O)CCCC/C=C/C(C)C)ccc1O` [Capsaicin]: the z.score.t came to 0.03421.

Consider `C[C@H](CS)C(=O)N1CCC[C@H]1C(=O)O` [Captopril], for which the z.score.t is 2.207.

For `C[N+](C)(C)CCOC(N)=O` [Carbachol], the z.score.t is given as −0.1239.

`NC(=O)N1c2ccccc2C=Cc2ccccc21` [Carbamazepine]: the z.score.t amounted to 0.8158.

Regarding `CC1(C)[C@@H](OC(=O)CCC(=O)O)CC[C@]2(C)[C@H]3C(=O)C=C4[C@@H]5C[C@@](C)(C(=O)O)CC[C@]5(C)CC[C@@]4(C)[C@]3(C)CC[C@@H]12` [Carbenoxolone disodium salt], the z.score.t is 1.163.

Consider `CCN(CC)CCOCCOC(=O)C1(c2ccccc2)CCCC1` [Carbetapentane citrate], for which the z.score.t was determined as 0.3024.

`CCOC(=O)n1ccn(C)c1=S` [Carbimazole]: the z.score.t was −0.2276.

In the case of `NCCC(=O)NCCc1c[nH]cn1` [Carcinine], the z.score.t was found to be 0.8711.

As for `CC(C)(C)NCC(O)COc1cccc2c1CCC(=O)N2` (stereo not shown) [Carteolol hydrochloride], the z.score.t worked out at 1.266.

In the case of `N[C@@H](C(=O)N[C@@H]1C(=O)N2C(C(=O)O)=C(Cl)CS[C@H]12)c1ccccc1` [Cefaclor], the z.score.t is recorded as −0.7233.

Take `CC1=C(C(=O)O)N2C(=O)[C@@H](NC(=O)[C@H](N)c3ccc(O)cc3)[C@H]2SC1` [Cefadroxil]: the z.score.t is 0.5046.

Regarding `NC(=O)c1cc[n+](CC2=C(C(=O)[O-])N3C(=O)[C@@H](NC(=O)Cc4cccs4)[C@H]3SC2)cc1` [Cefalonium], the z.score.t is given as −0.3867.

For the molecule `Cn1nnnc1SCC1=C(C(=O)O)N2C(=O)[C@@H](NC(=O)[C@H](O)c3ccccc3)[C@H]2SC1` [Cefamandole sodium salt], the z.score.t is −0.7376.

`Cc1nnc(SCC2=C(C(=O)O)N3C(=O)[C@@H](NC(=O)Cn4cnnn4)[C@H]3SC2)s1` [Cefazolin sodium salt]: the z.score.t is −0.6194.

Consider `CO/N=C(\C(=O)N[C@@H]1C(=O)N2C(C(=O)O)=C(C[N+]3(C)CCCC3)CS[C@H]12)c1csc(N)n1` [Cefepime hydrochloride], for which the z.score.t is reported as −0.9926.

For the molecule `C=CC1=C(C(=O)O)N2C(=O)[C@@H](NC(=O)/C(=N\OCC(=O)O)c3csc(N)n3)[C@H]2SC1` [Cefixime], the z.score.t turned out to be 0.5046.

In the case of `CO[C@@]1(NC(=O)CSCC#N)C(=O)N2C(C(=O)O)=C(CSc3nnnn3C)CS[C@@H]21` [Cefmetazole sodium salt], the z.score.t is 0.1916.

Regarding `CCN1CCN(C(=O)N[C@@H](C(=O)N[C@@H]2C(=O)N3C(C(=O)O)=C(CSc4nnnn4C)CS[C@H]23)c2ccc(O)cc2)C(=O)C1=O` [Cefoperazone dihydrate], the z.score.t is recorded as −0.7233.

Consider `NCc1ccccc1CC(=O)N[C@@H]1C(=O)N2C(C(=O)O)=C(CSc3nnnn3CC(=O)O)CS[C@H]12` [Ceforanide], for which the z.score.t was −0.5532.

On to `CO/N=C(\C(=O)N[C@@H]1C(=O)N2C(C(=O)O)=C(COC(C)=O)CS[C@H]12)c1csc(N)n1` [Cefotaxime sodium salt], for which the z.score.t was 1.931.
